# In ChEMBL document CHEMBL6182937, “Design, Synthesis, and Anti-ischemic Stroke Activity Evaluation of Novel GSNOR Inhibitors” (J Med Chem, 2025):
# Active and inactive are the calls of the source. The rule behind the calls is not given here.
# Tests used:
# [1] = Inhibition of GSNOR (unknown origin) in presence of NADH incubated for 10 mins by microplate reader analysis; set-up: species or system Homo sapiens
# Homo sapiens [2] = species on record: Homo sapiens; experiment: Inhibition of GSNOR (unknown origin) at 1 uM in presence of NADH incubated for 10 mins by microplate reader analysis relative to control
# SH-SY5Y [3] = experiment: Neuroprotective activity against OGD/R-induced human […] cell injury model assessed as increase in cell viability at 10 uM measured for 24 hrs by CCK-8 assay; assay type: functional, cell-based
# Rattus norvegicus [4] = experiment: Neuroprotective activity against tMCAO- induced brain injury in Sprague-Dawley rat model assessed as reduction in infarct volume at 5 mg/kg, iv measured up to 24 hrs by TTC staining based analysis (reference value: 36.35 +/- 4.05%); assay type: functional; set-up: scale not given: the % may be the effect or the level left
# Rattus norvegicus [5] = experiment: Neuroprotective activity against tMCAO- induced brain injury in Sprague-Dawley rat model assessed as reduction in infarct volume at 10 mg/kg, iv measured up to 24 hrs by TTC staining based analysis (reference value: 36.35 +/- 4.05%); assay type: functional; set-up: scale not given: the % may be the effect or the level left
# Homo sapiens [6] = species on record: Homo sapiens; experiment: Inhibition of GSNOR (unknown origin) at 10 uM relative to control
# SH-SY5Y [7] = experiment: Cytotoxicity against human SH-SY5Y cells up to 40 uM incubated for 24 hrs by CCK-8 assay; assay type: functional, cell-based
# SH-SY5Y [8] = experiment: Neuroprotective activity against OGD/R-induced human […] cell injury model assessed as cell survival measured for 24 hrs by CCK-8 assay; assay type: functional, cell-based; conditions: dose 1-10 µM
# [9] = Permeability of compound across apical to basal side in human Caco-2 cells at 10 uM incubated for 120 mins by LC-MS/MS analysis; assay type: ADME, cell-based; conditions: caco-2, 2 h
# [10] = Stability in rat plasma assessed as half life at 1 uM incubated up to 120 mins by LC-MS/MS analysis; assay type: ADME, cell-free
# [11] = Metabolic stability in rat liver microsomes assessed as half life preincubated for 5 mins followed by NADPH addition and measured up to 60 mins by LC-MS/MS analysis; assay type: ADME, Microsome; conditions: time < 65 min
# [12] = Metabolic stability in rat liver microsomes assessed as intrinsic clearance preincubated for 5 mins followed by NADPH addition and measured up to 60 mins by LC-MS/MS analysis; assay type: ADME, Microsome; conditions: time < 65 min, read-out: CLH
# [13] = Oral bioavailability in male C57BL/6 mouse at 10 mg/kg by LC-MS/MS analysis; assay type: ADME, organism-based; conditions: in vivo
# [14] = Half life in male C57BL/6 mouse at 10 mg/kg, po by LC-MS/MS analysis; assay type: ADME, organism-based; conditions: in vivo
# [15] = Half life in male C57BL/6 mouse at 2 mg/kg, iv by LC-MS/MS analysis; assay type: ADME, organism-based; conditions: in vivo
# [16] = MRT (0 to t) in male C57BL/6 mouse at 10 mg/kg, po by LC-MS/MS analysis; assay type: ADME, organism-based; conditions: in vivo
# [17] = MRT (0 to t) in male C57BL/6 mouse at 2 mg/kg, iv by LC-MS/MS analysis; assay type: ADME, organism-based; conditions: in vivo
# [18] = Half life in Sprague-Dawley rat at 10 mg/kg, iv by LC-MS/MS analysis; assay type: ADME, organism-based; conditions: in vivo
# [19] = Tmax in Sprague-Dawley rat at 10 mg/kg, iv by LC-MS/MS analysis; assay type: ADME, organism-based; conditions: in vivo
# [20] = Cmax in Sprague-Dawley rat at 10 mg/kg, iv by LC-MS/MS analysis; assay type: ADME, organism-based; conditions: in vivo
# [21] = AUC (0 to t) in Sprague-Dawley rat at 10 mg/kg, iv by LC-MS/MS analysis; assay type: ADME, organism-based; conditions: in vivo
# [22] = MRT (0 to t) in Sprague-Dawley rat at 10 mg/kg, iv by LC-MS/MS analysis; assay type: ADME, organism-based; conditions: in vivo
# [23] = Clearance in Sprague-Dawley rat at 10 mg/kg, iv by LC-MS/MS analysis; assay type: ADME, organism-based; conditions: in vivo
# Rattus norvegicus [24] = experiment: Neuroprotective activity against tMCAO- induced brain injury in Sprague-Dawley rat model assessed as reduction in neurological score at 10 mg/kg, iv measured up to 24 hrs Longa scale analysis; assay type: functional, organism-based
# Rattus norvegicus [25] = experiment: Neuroprotective activity against tMCAO- induced brain injury in Sprague-Dawley rat model assessed as reduction in neurological score at 5 mg/kg, iv measured up to 24 hrs Longa scale analysis; assay type: functional, organism-based
# Rattus norvegicus [26] = experiment: Neuroprotective activity against tMCAO- induced brain injury in Sprague-Dawley rat model assessed as […] at 5 mg/kg, iv measured up to 24 hrs; assay type: functional, organism-based
# Rattus norvegicus [27] = experiment: Neuroprotective activity against tMCAO- induced brain injury in Sprague-Dawley rat model assessed as upregulation of clstn1 level in brain at 5 mg/kg, iv measured after 24 hrs by LC-MS/MS analysis; assay type: functional, organism-based
# [28] = Inhibition of GSNOR (unknown origin); set-up: species or system Homo sapiens
smiles,measurement,setting,value
Cc1cc(C(N)=O)ccc1-n1c(CCC(=O)O)ccc1-c1ccc(-n2ccnc2)cc1 [N6022],IC50,[1],84.7 nM
same,inhibition,Homo sapiens [2],90.3%
same,Activity,SH-SY5Y [3],Active
same,Activity,Rattus norvegicus [4],25.26%
same,Activity,Rattus norvegicus [5],25.26%
NC(=O)c1ccc(-n2c(-c3ccc(-n4ccnc4)cc3)cc3ccc(C(=O)O)cc32)cn1,inhibition,Homo sapiens [2],60.7%
Cc1cc(C(N)=O)ccc1-n1c(-c2ccc(-c3ccncc3)cc2)cc2ccc(C(=O)O)cc21,inhibition,Homo sapiens [2],12.5%
N#Cc1ccc(Cn2c(-c3ccc(-n4ccnc4)cc3)cc3ccc(C(=O)O)cc32)cc1,IC50,[1],54.6 nM
same,inhibition,Homo sapiens [2],35.1%
O=C(O)c1ccc2cc(-c3ccccc3)n(Cc3ccc(F)cc3)c2c1,inhibition,Homo sapiens [6],32.4%
CCOc1cc(-n2c(-c3ccc(-n4ccnc4)cc3)cc3ccc(C(=O)OC)cc32)ccc1C(N)=O,inhibition,Homo sapiens [2],16.4%
same,Activity,SH-SY5Y [7],Active
same,Activity,SH-SY5Y [3],Active
same,Activity,SH-SY5Y [8],Dose-dependent-effect
same,permeability,[9],Permeable
same,half-life at 1 µM,[10],257 min
same,half-life,[11],158 min
same,CLint scaled,[12],15.8 mL/min/kg
same,bioavailability,[13],11.2%
same,half-life,[14],76.2 min
same,half-life,[15],59.4 min
same,MRT last,[16],66 min
same,MRT last,[17],47.4 min
same,half-life,[18],36 min
same,Tmax,[19],4.8 min
same,Cmax,[20],11600 ng/mL
same,AUC(0-t),[21],8040 ng·h/mL
same,MRT last,[22],42.6 min
same,clearance,[23],20.9 mL/min/kg
same,Activity,Rattus norvegicus [4],24.39%
same,Activity,Rattus norvegicus [5],12.74%
same,Activity,Rattus norvegicus [24],Active
same,Activity,Rattus norvegicus [25],Active
same,Activity,Rattus norvegicus [26],Active
same,Activity,Rattus norvegicus [27],Active
Cc1cc(-n2c(-c3ccc(-n4ccnc4)cc3)cc3ccc(C(=O)O)cc32)ccc1C(N)=O,inhibition,Homo sapiens [2],72.2%
Cc1cc(C(N)=O)ccc1-n1c(-c2ccc(-c3cn(C)nc3C)cc2)cc2ccc(C(=O)O)cc21,inhibition,Homo sapiens [2],2.44%
Cc1cc(C(N)=O)ccc1-n1c(-c2ccc(-c3ccc(=O)[nH]c3)cc2)cc2ccc(C(=O)O)cc21,inhibition,Homo sapiens [2],5.7%
CN(C)S(=O)(=O)c1ccc(Cn2c(-c3ccc(-n4ccnc4)cc3)cc3ccc(C(=O)O)cc32)cc1,inhibition,Homo sapiens [2],94.3%
Cc1cc(C(N)=O)ccc1-n1c(-c2ccc(N3CCN(C)CC3)cc2)cc2ccc(C(=O)O)cc21,inhibition,Homo sapiens [2],-0.36%
O=C(O)c1ccc2cc(-c3ccc(-n4ccnc4)cc3)n(Cc3ccc(Br)cc3)c2c1,IC50,[1],84.4 nM
same,inhibition,Homo sapiens [2],81.6%
O=C(O)c1ccc2cc(-c3ccc(-n4ccnc4)cc3)n(Cc3ccc(N4CCCC4=O)cc3)c2c1,inhibition,Homo sapiens [2],85.5%
O=C(O)c1ccc2cc(-c3ccc(-n4ccnc4)cc3)n(Cc3ccc(SC(F)(F)F)cc3)c2c1,IC50,[1],71.1 nM
same,inhibition,Homo sapiens [2],89.7%
NC(=O)c1cccc(Cn2c(-c3ccc(-n4ccnc4)cc3)cc3ccc(C(=O)O)cc32)c1,inhibition,Homo sapiens [2],3.84%
N#Cc1ccc(-n2c(-c3ccc(-n4ccnc4)cc3)cc3ccc(C(=O)O)cc32)cc1,inhibition,Homo sapiens [2],22.4%
Cc1cc(C(N)=O)ccc1-n1c(-c2ccc(N3CCOCC3)cc2)cc2ccc(C(=O)O)cc21,inhibition,Homo sapiens [2],-0.76%
O=C(O)c1ccc2cc(-c3ccc(-n4ccnc4)cc3)n(Cc3ccc(F)cc3)c2c1,IC50,[28],649 nM
